From patent publication US5449820A, “Method of preparing high purity 2,6-naphthalene dicarboxylic acid” (Mitsubishi Chemical Corporation, priority 1994, dated 1995) come the findings set out here.

Where only a bound is given, the exact number is not on record here.

This data set can be described thus: solubility of 2,6-naphthalene dicarboxylic acid with respect to high temperature and high pressure water. Format: physicochemical. The following applies: for solubility in water containing 5 wt % of isopropanol: water containing 5 wt % of isopropanol (entrainer). Here is the method:
Although the quantity of water for use in the dissolving process differs depending upon the dissolving temperature, the quantity of water must be larger than a quantity (the saturated solubility) in which coarse 2,6-naphthalene dicarboxylic acid can be completely dissolved. In an example case where water containing 5 wt % of isopropanol is used and the dissolving temperature is 300° C., five parts or more by weight of water with respect to one part by weight of coarse 2,6-naphthalene dicarboxylic acid is required. An example of the results of measurements of the solubility of 2,6-naphthalene dicarboxylic acid with respect to high temperature and high pressure water is shown in Table 1.

As to `O=C(O)c1ccc2cc(C(=O)O)ccc2c1` [2,6-naphthalene dicarboxylic acid], the Solubility in water reads like this: (225 °C, 27 atm) 0.36 wt %; (250 °C, 40 atm) 1.13 wt %; (275 °C, 60 atm) 3.28 wt %; (300 °C, 86 atm) 8.34 wt %; (325 °C, 121 atm) 18.6 wt %; (375 °C, 230 atm) 34.2 wt %. The molecule also yielded a Solubility in water (386 °C, 230 atm) of 36.7 wt %. For the same molecule, the “solubility in water containing 5 wt % of isopropanol” value by setting is: (250 °C) 4.2 wt %; (300 °C) 18.0 wt %. Further, under “about 370 °C, critical temperature for water”, the “solubility with respect to water (dissolved)” value was no less than 30 wt %.
